{"source": "patent US11773109B2", "about": "“Composition for hardening soft tissue” (The Catholic University of Korea Industry—Academic …, priority 2016, dated 2023)", "key": {"pancreas of mice [1]": {"tested_on": "pancreas of mice", "assay": "Tension (suture-holding capacity) of the mouse pancreas after treatment, Newton dynamometer", "assay_type": "in vivo", "conditions": "for response vs control in vivo at 1000 µM: fold of control, read-out: increase of the tension of the pancreas compared to the control", "description": "Specifically, it means a force which occurs in an organ in response to an external force exerted by stretching or pulling action. The measurement of the tension according to the present invention is performed using a dynamometer. More specifically, the tension is determined by measuring suture-holding capacity using a Newton dynamometer. At this time, the tension is calculated by adding the weight of the tissue.\n(§1) More specifically, three mice were treated with 1 mM of each of the antibiotics shown above, and three mice were treated with phosphate buffered saline (PBS) as a control.\n(2) Measurement of Tensile\nThe tension of the pancreas was measured using a dynamometer. Specifically, a pancreatic fragment having a size of 1×1×1.5 cm was prepared, and then silk 4-0 suture was passed through the tissue to form a knob, and suture-holding capacity was measured using a Newton dynamometer. At this time, the tension was calculated by adding the weight of the tissue."}, "pancreas of mice [2]": {"tested_on": "pancreas of mice", "assay": "Hardness (elastic modulus) of the mouse pancreas after treatment, hardness meter (Venustron)", "assay_type": "in vivo", "description": "The measurement of the hardness according to the present invention is performed using a hardness meter, and measurement of the hardness of the pancreas is performed by measuring elastic modulus (EM) based on the Hooke's law and the Hertz's contact stress theory. The EM is a measure of the stiffness of an elastic material, and is expressed as the ratio of “the stress along the axis” and “the total strain along the axis within the range of the stress” by the Hooke's law.\nas §1\n(1) Measurement of Hardness\nIn order to measure the resistance of the pancreas using a hardness meter, the elastic modulus (EM) of the dissected pancreas was measured using Venustron (Axiom, Koriyama, Japan) based on the Hooke's law and the Hertz's contract stress theory, and the resistance of the pancreas was calculated using the following equation: […]\n(F, force; v, Poisson's ratio; t, variant of compression; r, the diameter of a rigid spherical probe that presses an object vertically)"}, "[3]": {"conditions": "mouse pancreas treated with 1 mM of compound, compared to control (PBS / untreated), result in words"}, "[4]": {"conditions": "mouse pancreas treated with 1 mM of compound"}}, "note": "Entries after “also recorded” stand apart in the source; their conditions may differ."}
{"smiles": "CC1(C)S[C@@H]2[C@H](NC(=O)Cc3ccccc3)C(=O)N2[C@H]1C(=O)O.[K+]", "note": "[KRM-60027, Potassium (2S,5R,6R)-3,3-dimethyl-7-oxo-6-(2-phenylacetamido)-4-thia-1-azabicyclo[3.2.0]heptane-2-carboxylate, reference compound]", "values": [{"measurement": "change in the tension of the pancreas compared to the control", "setting": "pancreas of mice [1]; [3]", "result": "significantly increasing the tension; also recorded: had the effects of increasing the tension and hardness; also recorded: increased the tension of the pancreas to a significant level; also recorded: excellent effect on an increase in the tension; also recorded: significant increase in the tension"}]}
{"smiles": "C=CCOC(=O)[C@@H]1N2C(=O)[C@@H](NC(=O)Cc3ccccc3)[C@H]2SC1(C)C", "note": "[KRM-60028, Allyl (2S,5R,6R)-3,3-dimethyl-7-oxo-6-(2-phenylacetamido)-4-thia-1-azabicyclo[3.2.0]heptane-2-carboxylate]", "values": [{"measurement": "change in the tension of the pancreas compared to the control", "setting": "pancreas of mice [1]; [3]", "result": "both the hardness and tension of the pancreas increased"}, {"measurement": "change in the hardness of the pancreas compared to the control", "setting": "pancreas of mice [2]; [3]", "result": "both the hardness and tension of the pancreas increased"}]}
{"smiles": "CC1(C)S[C@@H]2[C@H](NC(=O)Cc3ccccc3)C(=O)N2[C@H]1C(=O)OCC1CCCCC1", "note": "[KRM-60029, Cyclohexylmethyl (2S,5R,6R)-3,3-dimethyl-7-oxo-6-(2-phenylacetamido)-4-thia-1-azabicyclo[3.2.0]heptane-2-carboxylate]", "values": [{"measurement": "change in the tension of the pancreas compared to the control", "setting": "pancreas of mice [1]; [3]", "result": "both the hardness and tension of the pancreas increased"}, {"measurement": "change in the hardness of the pancreas compared to the control", "setting": "pancreas of mice [2]; [3]", "result": "both the hardness and tension of the pancreas increased"}]}
{"smiles": "CC1(C)S[C@@H]2[C@H](NC(=O)Cc3ccccc3)C(=O)N2[C@H]1C(=O)OCCCC#N", "note": "[KRM-60030, 3-cyanopropyl (2S,5R,6R)-3,3-dimethyl-7-oxo-6-(2-phenylacetamido)-4-thia-1-azabicyclo[3.2.0]heptane-2-carboxylate]", "values": [{"measurement": "change in the tension of the pancreas compared to the control", "setting": "pancreas of mice [1]; [3]", "result": "both the hardness and tension of the pancreas increased"}, {"measurement": "response vs control in vivo at 1000 µM", "setting": "pancreas of mice [1]; [4]", "result": 200, "unit": "%"}, {"measurement": "change in the hardness of the pancreas compared to the control", "setting": "pancreas of mice [2]; [3]", "result": "both the hardness and tension of the pancreas increased"}, {"measurement": "increase of the hardness of the pancreas compared to the control", "setting": "pancreas of mice [2]; mouse pancreas treated with 1 mM of compound, fold of control", "result": 1.5, "unit": "times"}]}
{"smiles": "CC1(C)S[C@@H]2[C@H](NC(=O)[C@H](N)c3ccccc3)C(=O)N2[C@H]1C(=O)[O-].[Na+]", "note": "[KRM-60036, Sodium (2S,5R,6R)-6-((R)-2-amino-2-phenylacetamido)-3,3-dimethyl-7-oxo-4-thia-1-azabicyclo[3.2.0]heptane-2-carboxylate, reference compound]", "values": [{"measurement": "change in the tension of the pancreas compared to the control", "setting": "pancreas of mice [1]; [3]", "result": "had the effects of increasing the tension and hardness"}, {"measurement": "change in the hardness of the pancreas compared to the control", "setting": "pancreas of mice [2]; [3]", "result": "significantly increased the hardness; also recorded: had the effects of increasing the tension and hardness; also recorded: excellent effect on an increase in the hardness"}]}
{"smiles": "CC(C)(S)[C@@H](N)C(=O)O", "note": "[KRM-60037, (S)-2-amino-3-mercapto-3-methylbutanoic acid, reference compound]", "values": [{"measurement": "change in the tension of the pancreas compared to the control", "setting": "pancreas of mice [1]; [3]", "result": "had the effects of increasing the tension and hardness"}, {"measurement": "response vs control in vivo at 1000 µM", "setting": "pancreas of mice [1]; [4]", "result": 150, "unit": "%"}, {"measurement": "change in the hardness of the pancreas compared to the control", "setting": "pancreas of mice [2]; [3]", "result": "had the effects of increasing the tension and hardness"}]}
{"smiles": "Oc1cccc2cccnc12", "note": "[KRM-60042, 8-hydroxyquinoline, reference compound]", "values": [{"measurement": "change in the tension of the pancreas compared to the control", "setting": "pancreas of mice [1]; mouse, in vivo", "result": "significantly increases both the hardness and tension; also recorded: had the effects of increasing the tension and hardness; also recorded: increased both the hardness and tension of the pancreas to high levels; also recorded: excellent effects on increases in both the hardness and tension"}, {"measurement": "change in the hardness of the pancreas compared to the control", "setting": "pancreas of mice [2]; mouse, in vivo", "result": "significantly increases both the hardness and tension; also recorded: had the effects of increasing the tension and hardness; also recorded: increased both the hardness and tension of the pancreas to high levels; also recorded: excellent effects on increases in both the hardness and tension"}]}
{"smiles": "CC(=O)N1CCN(c2ccc(OC[C@H]3CO[C@](Cn4ccnc4)(c4ccc(Cl)cc4Cl)O3)cc2)CC1", "note": "[KRM-60049, 1-(4-(4-(((2R,4S)-2-((1H-imidazol-1-yl)methyl)-2-(2,4-dichlorophenyl)-1,3-dioxolan-4-yl)methoxy)phenyl)piperazin-1-yl)ethanone, reference compound]", "values": [{"measurement": "change in the tension of the pancreas compared to the control", "setting": "pancreas of mice [1]; [3]", "result": "had the effects of increasing the tension and hardness; also recorded: increased both the hardness and tension of the pancreas to high levels"}, {"measurement": "change in the hardness of the pancreas compared to the control", "setting": "pancreas of mice [2]; [3]", "result": "had the effects of increasing the tension and hardness; also recorded: increased both the hardness and tension of the pancreas to high levels"}]}
{"smiles": "CC(C)(C)OC(=O)CCOC(=O)[C@@H]1N2C(=O)[C@@H](NC(=O)Cc3ccccc3)[C@H]2SC1(C)C", "note": "[KRM-60077, 3-(tert-butoxy)-3-oxopropyl (2S,5R,6R)-3,3-dimethyl-7-oxo-6-(2-phenylacetamido)-4-thia-1-azabicyclo[3.2.0]heptane-2-carboxylate]", "values": [{"measurement": "change in the tension of the pancreas compared to the control", "setting": "pancreas of mice [1]; [3]", "result": "increased both the hardness and tension of the pancreas to significant levels"}, {"measurement": "change in the hardness of the pancreas compared to the control", "setting": "pancreas of mice [2]; [3]", "result": "increased both the hardness and tension of the pancreas to significant levels"}]}
{"smiles": "CC(C)COC(=O)[C@@H]1N2C(=O)[C@@H](NC(=O)Cc3ccccc3)[C@H]2SC1(C)C", "note": "[KRM-60078, Isobutyl (2S,5R,6R)-3,3-dimethyl-7-oxo-6-(2-phenylacetamido)-4-thia-1-azabicyclo[3.2.0]heptane-2-carboxylate]", "values": [{"measurement": "change in the tension of the pancreas compared to the control", "setting": "pancreas of mice [1]; [3]", "result": "increased both the hardness and tension of the pancreas to significant levels"}, {"measurement": "change in the hardness of the pancreas compared to the control", "setting": "pancreas of mice [2]; [3]", "result": "increased both the hardness and tension of the pancreas to significant levels"}]}
{"smiles": "CCOCCOCCOC(=O)[C@@H]1N2C(=O)[C@@H](NC(=O)Cc3ccccc3)[C@H]2SC1(C)C", "note": "[KRM-60080, 2-(2-ethoxyethoxy)ethyl (2S,5R,6R)-3,3-dimethyl-7-oxo-6-(2-phenylacetamido)-4-thia-1-azabicyclo[3.2.0]heptane-2-carboxylate]", "values": [{"measurement": "change in the tension of the pancreas compared to the control", "setting": "pancreas of mice [1]; [3]", "result": "increased both the hardness and tension of the pancreas to significant levels"}, {"measurement": "change in the hardness of the pancreas compared to the control", "setting": "pancreas of mice [2]; [3]", "result": "increased both the hardness and tension of the pancreas to significant levels"}]}
{"smiles": "CC(=O)OCC1=C(C(=O)O)N2C(=O)[C@@H](N)[C@H]2SC1", "note": "[KRM-60081, (6R,7R)-3-(acetoxymethyl)-7-amino-8-oxo-5-thia-1-azabicyclo[4.2.0]oct-2-ene-2-carboxylic acid]", "values": [{"measurement": "change in the tension of the pancreas compared to the control", "setting": "pancreas of mice [1]; [3]", "result": "increased both the hardness and tension of the pancreas to significant levels"}, {"measurement": "change in the hardness of the pancreas compared to the control", "setting": "pancreas of mice [2]; [3]", "result": "increased both the hardness and tension of the pancreas to significant levels"}]}
{"smiles": "CCn1cc(C(=O)O)c(=O)c2cnc(N3CCNCC3)nc21", "note": "[KRM-60082, 8-ethyl-5-oxo-2-(piperazin-1-yl)-5,8-dihydropyrido[2,3-d]pyrimidine-6-carboxylic acid]", "values": [{"measurement": "change in the tension of the pancreas compared to the control", "setting": "pancreas of mice [1]; [3]", "result": "increased both the hardness and tension of the pancreas to significant levels"}, {"measurement": "change in the hardness of the pancreas compared to the control", "setting": "pancreas of mice [2]; [3]", "result": "increased both the hardness and tension of the pancreas to significant levels"}]}
{"smiles": "COc1cc(Cc2cnc(N)nc2N)cc(OC)c1OC", "note": "[KRM-60088, 5-(3,4,5-trimethoxybenzyl)pyrimidine-2,4-diamine]", "values": [{"measurement": "change in the tension of the pancreas compared to the control", "setting": "pancreas of mice [1]; [3]", "result": "increased both the hardness and tension of the pancreas to significant levels"}, {"measurement": "change in the hardness of the pancreas compared to the control", "setting": "pancreas of mice [2]; [3]", "result": "increased both the hardness and tension of the pancreas to significant levels"}]}
{"smiles": "O=C(O)c1cnc2cc(Cl)ccc2c1O", "note": "[KRP-00001, 7-chloro-4-hydroxy-3-quinolinecarboxylic acid]", "values": [{"measurement": "change in the tension of the pancreas compared to the control", "setting": "pancreas of mice [1]; [3]", "result": "increased both the hardness and tension"}, {"measurement": "response vs control in vivo at 1000 µM", "setting": "pancreas of mice [1]; [4]", "result": "≥ 150", "unit": "%"}, {"measurement": "change in the hardness of the pancreas compared to the control", "setting": "pancreas of mice [2]; [3]", "result": "increased both the hardness and tension"}]}
{"smiles": "Oc1ccc(Cl)c2cccnc12", "note": "[KRP-00002, 5-chloro-8-hydroxyquinoline]", "values": [{"measurement": "change in the tension of the pancreas compared to the control", "setting": "pancreas of mice [1]; [3]", "result": "increased both the hardness and tension"}, {"measurement": "response vs control in vivo at 1000 µM", "setting": "pancreas of mice [1]; [4]", "result": "≥ 150", "unit": "%"}, {"measurement": "change in the hardness of the pancreas compared to the control", "setting": "pancreas of mice [2]; [3]", "result": "increased both the hardness and tension"}]}
{"smiles": "Oc1c(I)cc(Cl)c2cccnc12", "note": "[KRP-00003, 5-chloro-8-hydroxy-7-iodoquinoline]", "values": [{"measurement": "change in the tension of the pancreas compared to the control", "setting": "pancreas of mice [1]; [3]", "result": "increased both the hardness and tension"}, {"measurement": "response vs control in vivo at 1000 µM", "setting": "pancreas of mice [1]; [4]", "result": "≥ 150", "unit": "%"}, {"measurement": "change in the hardness of the pancreas compared to the control", "setting": "pancreas of mice [2]; [3]", "result": "increased both the hardness and tension"}]}
{"smiles": "Oc1cc2ccccc2cn1", "note": "[KRP-00010, 3-hydroxyisoquinoline]", "values": [{"measurement": "response vs control in vivo at 1000 µM", "setting": "pancreas of mice [1]; [4]", "result": "~240", "unit": "%"}]}
